Experimental data: patent US4632926A, “Quinazolinone derivatives which are active against coccidiosis” (priority 1982, dated 1986)
Entries after “also recorded” stand apart in the source; their conditions may differ.

Legend:
chickens [1] = assay: Toxicity phenomena in chickens fed with the compound in poultry-feed; type: in vivo
coccidia = conditions: cited from earlier work
chickens [2] = conditions: poultry; cited from earlier work
poultry = conditions: background; cited from earlier work
Eimeria tenella = assay: Coccidiostatic activity in vivo against Eimeria tenella (lesions, % control of the infection); set-up: species or system Eimeria tenella (in Ranger pullets)
Method: (§1) Groups of 5 one-week-old Ranger pullets were infected each with a mixture of 5500 sporulated oocysts of Eimeria tenella and with 5000 sporulated oocysts of Eimeria acervulina.
(§2) The compound being tested was administered at the preselected dose in admixture with a poultry-feed (LD5) poor in vitamin K and containing no other additive.
(§3) The pullets were fed ad libitum with a fodder so prepared, beginning from 1 day prior to the infestation and going on for further 5 days.
(§4) As a check, there were used non-infested non-treated chickens and infested non-treated chickens.
(§5) The evaluation of the activity on Eimeria tenella was accomplished by ascertaining the presence of lesions, if any, 5 days after the infection, while the activity on Eimeria acervulina was evaluated by ascertaining the presence of oocysts, if if any, in the excrements 5 days after the infection.
(§6) The above compounds were tested for anticoccidial activity against E. tenella and E. acervulina according to the procedure hereabove described.
(§7) The activity against E. tenella was expressed as percent control of the infection at the considered dose, while the activity against E. acervulina was expressed on the basis of the presence, if any, of oocysts in the excrements and was rated as follows: […]

Eimeria acervulina = assay: Coccidiostatic activity in vivo against Eimeria acervulina (presence of oocysts in the excrements); set-up: species or system Eimeria acervulina (in Ranger pullets); key to E. acervulina (oocysts): A: absent; M: minimal present; P: present
Method: as §1, §2, §3, §4, §5, §6, §7

[3] = Toxicity towards poultry, LD50; conditions: chicken, in vivo

Q: With O=C(CC1NCCCC1O)Cn1cnc2cc(Br)c(Cl)cc2c1=O (stereo not shown) [Halofuginone] as the compound, how does the “toxicity phenomena in chickens” value (chickens [1]; about 38 ppm in the poultry-feed) read?
A: show phenomena of toxicity

Q: And the anticoccidial activity (coccidia; background, poultry, even at very low doses (practical dose 3 ppm in feed))?
A: particularly active against coccidiosis in poultry; also recorded: high anticoccidial activity even at very low doses

Q: What about the LD50 (chickens [2]) of the same compound?
A: 17.6 mg/Kg body weight

Q: And the toxicity for chickens (poultry)?
A: very toxic for chickens

Q: For NN=C(CC1NCCCC1O)Cn1cnc2cc(Br)c(Cl)cc2c1=O (stereo not shown) [Compound No. 1, 6-chloro-7-bromo-3-[3-(3-hydroxy-2-piperidyl)-acetonyl]-(3H)-quinazolin-4-one hydrazone], which “E. tenella (% control)” value (Eimeria tenella; 3.125 ppm in feed) is on record?
A: 100 % control

Q: What about the “E. tenella (% control)” value (Eimeria tenella; 6.25 ppm in feed) of the same compound?
A: 100 % control

Q: What about the “E. tenella (% control)” value (Eimeria tenella; 12.5 ppm in feed) of the same compound?
A: 100 % control

Q: What about the “E. tenella (% control)” value (Eimeria tenella; 25 ppm in feed) of the same compound?
A: 100 % control

Q: And the “E. acervulina (oocysts)” value (Eimeria acervulina; 3.125 ppm in feed)?
A: M

Q: And the “E. acervulina (oocysts)” value (Eimeria acervulina; 6.25 ppm in feed)?
A: A

Q: And the “E. acervulina (oocysts)” value (Eimeria acervulina; 12.5 ppm in feed)?
A: A

Q: And the “E. acervulina (oocysts)” value (Eimeria acervulina; 25 ppm in feed)?
A: A

Q: Which “E. tenella (% control)” value (Eimeria tenella; 3.125 ppm in feed) does the source give for O=c1c2cc(Cl)c(Br)cc2ncn1CC(CC1NCCCC1O)=NO (stereo not shown) [Compound A, reference compound] here?
A: 0 % control

Q: What about the “E. tenella (% control)” value (Eimeria tenella; 6.25 ppm in feed) of the same compound?
A: 0 % control

Q: And the “E. tenella (% control)” value (Eimeria tenella; 12.5 ppm in feed)?
A: 40 % control

Q: What about the “E. tenella (% control)” value (Eimeria tenella; 25 ppm in feed) of the same compound?
A: 100 % control

Q: What about the “E. acervulina (oocysts)” value (Eimeria acervulina; 3.125 ppm in feed) of the same compound?
A: P

Q: What about the “E. acervulina (oocysts)” value (Eimeria acervulina; 6.25 ppm in feed) of the same compound?
A: P

Q: What about the “E. acervulina (oocysts)” value (Eimeria acervulina; 12.5 ppm in feed) of the same compound?
A: P

Q: And the “E. acervulina (oocysts)” value (Eimeria acervulina; 25 ppm in feed)?
A: M

Q: What does the source list for CCNN=C(CC1NCCCC1OC)Cn1cnc2cc(Br)c(Cl)cc2c1=O (stereo not shown) [Compound No. 2, 6-chloro-7-bromo-3-[3-(3-methoxy-2-piperidyl)-acetonyl]-(3H)-quinazolin-4-one ethylhydrazone]?
A: E. tenella (% control) (Eimeria tenella; 6.25 ppm in feed): 100 % control; E. tenella (% control) (Eimeria tenella; 12.5 ppm in feed): 100 % control; E. tenella (% control) (Eimeria tenella; 25 ppm in feed): 100 % control; activity against E. tenella, result in words (Eimeria tenella; dose of 12.5 ppm): full activity; E. acervulina (oocysts) (Eimeria acervulina; 6.25 ppm in feed): P; E. acervulina (oocysts) (Eimeria acervulina; 12.5 ppm in feed): A; E. acervulina (oocysts) (Eimeria acervulina; 25 ppm in feed): A; activity against E. acervulina, result in words (Eimeria acervulina; dose of 6.25 ppm): complete activity; toxicity phenomena in chickens (chickens [1]; 100 ppm in poultry-feed along the duration of the activity test): No toxicity phenomena; LD50 [3]: ~100 mg/kg

Q: For O=C(C[C@H]1NCCC[C@@H]1O)Cn1cnc2cc(Br)c(Cl)cc2c1=O (relative stereo) [trans-isomer], which “activity of trans-isomer compared with cis isomer” value (coccidia; trans versus cis isomer in the piperidine ring, Barringer et al. 1973) is on record?
A: higher activity than the corresponding cis isomer
